Legend:
[1] = Cytotoxicity against human MOLT4 cells assessed as growth level at 10 uM after 48 hrs by SRB assay; assay type: functional, MOLT-4
SR [2] = assay: Cytotoxicity against human SR cells assessed as growth level at 10 uM after 48 hrs by SRB assay; assay type: functional
EKVX = assay: Cytotoxicity against human EKVX cells assessed as growth level at 10 uM after 48 hrs by SRB assay; assay type: functional
[3] = Cytotoxicity against human HOP62 cells assessed as growth level at 10 uM after 48 hrs by SRB assay; assay type: functional, HOP-62
NCI-H23 = assay: Cytotoxicity against human NCI-H23 cells assessed as growth level at 10 uM after 48 hrs by SRB assay; assay type: functional
NCI-H322M = assay: Cytotoxicity against human NCI-H322M cells assessed as growth level at 10 uM after 48 hrs by SRB assay; assay type: functional
[4] = Cytotoxicity against human HCC2998 cells assessed as growth level at 10 uM after 48 hrs by SRB assay; assay type: functional, HCC 2998
[5] = Cytotoxicity against human SF295 cells assessed as growth level at 10 uM after 48 hrs by SRB assay; assay type: functional, SF-295
[6] = Cytotoxicity against human SNB75 cells assessed as growth level at 10 uM after 48 hrs by SRB assay; assay type: functional, SNB-75
[7] = Cytotoxicity against human LOXIMVI cells assessed as growth level at 10 uM after 48 hrs by SRB assay; assay type: functional, LOX IMVI
Malme-3M [8] = assay: Cytotoxicity against human MALME-3M cells assessed as growth level at 10 uM after 48 hrs by SRB assay; assay type: functional
[9] = Cytotoxicity against human UACC62 cells assessed as growth level at 10 uM after 48 hrs by SRB assay; assay type: functional, UACC-62
[10] = Cytotoxicity against human IGROV1 cells assessed as growth level at 10 uM after 48 hrs by SRB assay; assay type: functional, IGROV-1
[11] = Cytotoxicity against human OVCAR3 cells assessed as growth level at 10 uM after 48 hrs by SRB assay; assay type: functional, OVCAR-3
[12] = Cytotoxicity against human OVCAR5 cells assessed as growth level at 10 uM after 48 hrs by SRB assay; assay type: functional, OVCAR-5
A498 [13] = assay: Cytotoxicity against human A498 cells assessed as growth level at 10 uM after 48 hrs by SRB assay; assay type: functional
ACHN [14] = assay: Cytotoxicity against human ACHN cells assessed as growth level at 10 uM after 48 hrs by SRB assay; assay type: functional
[15] = Cytotoxicity against human Caki1 cells assessed as growth level at 10 uM after 48 hrs by SRB assay; assay type: functional, CAKI-1
SN12C = assay: Cytotoxicity against human SN12C cells assessed as growth level at 10 uM after 48 hrs by SRB assay; assay type: functional
[16] = Cytotoxicity against human PC3 cells assessed as growth level at 10 uM after 48 hrs by SRB assay; assay type: functional, PC-3
SR [17] = assay: Cytotoxicity against human SR cells assessed as growth inhibition at 10 uM after 48 hrs by SRB assay; assay type: functional; conditions: read-out: GI
[18] = Cytotoxicity against human HOP62 cells assessed as growth inhibition at 10 uM after 48 hrs by SRB assay; assay type: functional; conditions: HOP-62, 48 h, read-out: GI
NCI-H226 = assay: Cytotoxicity against human NCI-H226 cells assessed as growth inhibition at 10 uM after 48 hrs by SRB assay; assay type: functional; conditions: NCI-H226, 48 h, read-out: GI
NCI-H460 = assay: Cytotoxicity against human NCI-H460 cells assessed as growth inhibition at 10 uM after 48 hrs by SRB assay; assay type: functional; conditions: NCI-H460, 48 h, read-out: GI
NCI-H522 = assay: Cytotoxicity against human NCI-H522 cells assessed as growth inhibition at 10 uM after 48 hrs by SRB assay; assay type: functional; conditions: NCI-H522, 48 h, read-out: GI
[19] = Cytotoxicity against human HCC2998 cells assessed as growth inhibition at 10 uM after 48 hrs by SRB assay; assay type: functional; conditions: HCC 2998, 48 h, read-out: GI
[20] = Cytotoxicity against human HCT116 cells assessed as growth inhibition at 10 uM after 48 hrs by SRB assay; assay type: functional; conditions: HCT-116, 48 h, read-out: GI
HT-29 = assay: Cytotoxicity against human HT-29 cells assessed as growth inhibition at 10 uM after 48 hrs by SRB assay; assay type: functional; conditions: HT-29, 48 h, read-out: GI
KM12 = assay: Cytotoxicity against human KM12 cells assessed as growth inhibition at 10 uM after 48 hrs by SRB assay; assay type: functional; conditions: KM12, 48 h, read-out: GI
[21] = Cytotoxicity against human SF295 cells assessed as growth inhibition at 10 uM after 48 hrs by SRB assay; assay type: functional; conditions: SF-295, 48 h, read-out: GI
[22] = Cytotoxicity against human SF539 cells assessed as growth inhibition at 10 uM after 48 hrs by SRB assay; assay type: functional; conditions: SF-539, 48 h, read-out: GI
Malme-3M [23] = assay: Cytotoxicity against human MALME-3M cells assessed as growth inhibition at 10 uM after 48 hrs by SRB assay; assay type: functional; conditions: read-out: GI
[24] = Cytotoxicity against human UACC62 cells assessed as growth inhibition at 10 uM after 48 hrs by SRB assay; assay type: functional; conditions: UACC-62, 48 h, read-out: GI
[25] = Cytotoxicity against human OVCAR3 cells assessed as growth inhibition at 10 uM after 48 hrs by SRB assay; assay type: functional; conditions: OVCAR-3, 48 h, read-out: GI
[26] = Cytotoxicity against human OVCAR4 cells assessed as growth inhibition at 10 uM after 48 hrs by SRB assay; assay type: functional; conditions: OVCAR-4, 48 h, read-out: GI
786-0 = assay: Cytotoxicity against human 786-0 cells assessed as growth inhibition at 10 uM after 48 hrs by SRB assay; assay type: functional; conditions: 786-0, 48 h, read-out: GI
A498 [27] = assay: Cytotoxicity against human A498 cells assessed as growth inhibition at 10 uM after 48 hrs by SRB assay; assay type: functional; conditions: A498, 48 h, read-out: GI
ACHN [28] = assay: Cytotoxicity against human ACHN cells assessed as growth inhibition at 10 uM after 48 hrs by SRB assay; assay type: functional; conditions: read-out: GI
[29] = Cytotoxicity against human UO31 cells assessed as growth inhibition at 10 uM after 48 hrs by SRB assay; assay type: functional; conditions: UO-31, 48 h, read-out: GI
[30] = Cytotoxicity against human DU145 cells assessed as growth inhibition at 10 uM after 48 hrs by SRB assay; assay type: functional; conditions: DU-145, 48 h, read-out: GI
MDA-MB-468 = assay: Cytotoxicity against human MDA-MB-468 cells assessed as growth inhibition at 10 uM after 48 hrs by SRB assay; assay type: functional; conditions: MDA-MB-468, 48 h, read-out: GI
[31] = Cytotoxicity against human HL-60(TB) cells assessed as growth level at 10 uM after 48 hrs by SRB assay; assay type: functional

## C=C1CC[C@@H]2[C@](C)(COC(C)=O)[C@H](OC(C)=O)CC[C@@]2(C)[C@@H]1C/C=C1/C(=O)OC[C@H]1OC(C)=O
[1]
  Activity: -6.05%
SR [2]
  Activity: 5.73%
EKVX
  Activity: 102.98%
[3]
  Activity: 75.75%
NCI-H23
  Activity: 80.92%
NCI-H322M
  Activity: 101.35%
[4]
  Activity: 67.32%
[5]
  Activity: 95.02%
[6]
  Activity: 44.87%
[7]
  Activity: -74.4%
Malme-3M [8]
  Activity: 77.72%
[9]
  Activity: 29.71%
[10]
  Activity: 102.65%
[11]
  Activity: -21.32%
[12]
  Activity: 53.7%
A498 [13]
  Activity: 90.57%
ACHN [14]
  Activity: 19.55%
[15]
  Activity: 81.51%
SN12C
  Activity: 33.42%
[16]
  Activity: 88.46%
SR [17]
  inhibition of growth at 10 µM: 94.4%
[18]
  inhibition of growth at 10 µM: 24.2%
NCI-H226
  inhibition of growth at 10 µM: 76.4%
NCI-H460
  inhibition of growth at 10 µM: 1.96%
NCI-H522
  inhibition of growth at 10 µM: 41.6%
[19]
  inhibition of growth at 10 µM: 32.7%
[20]
  inhibition of growth at 10 µM: 37.3%
HT-29
  inhibition of growth at 10 µM: 39.4%
KM12
  inhibition of growth at 10 µM: 47.2%
[21]
  inhibition of growth at 10 µM: 4.98%
[22]
  inhibition of growth at 10 µM: 91.5%
Malme-3M [23]
  inhibition of growth at 10 µM: 22.3%
[24]
  inhibition of growth at 10 µM: 70.3%
[25]
  inhibition of growth at 10 µM: 21.3%
[26]
  inhibition of growth at 10 µM: 33.5%
786-0
  inhibition of growth at 10 µM: 10.9%
A498 [27]
  inhibition of growth at 10 µM: 9.43%
ACHN [28]
  inhibition of growth at 10 µM: 80.5%
[29]
  inhibition of growth at 10 µM: 37.2%
[30]
  inhibition of growth at 10 µM: 49.1%
MDA-MB-468
  inhibition of growth at 10 µM: 92%
[31]
  Activity: 79.11%

## C=C1CC[C@@H]2[C@](C)(CO)[C@H](O)CC[C@@]2(C)[C@@H]1C/C=C1/C(=O)OC[C@H]1O [ANDROGRAPHOLIDE]
[1]
  Activity: 98.11%
SR [2]
  Activity: 79.53%
EKVX
  Activity: 104.75%
[3]
  Activity: 96.27%
NCI-H23
  Activity: 97.89%
NCI-H322M
  Activity: 92.74%
[4]
  Activity: 114.39%
[5]
  Activity: 113.89%
[6]
  Activity: 61.95%
[7]
  Activity: 21.84%
Malme-3M [8]
  Activity: 99.78%
[9]
  Activity: 69.92%
[10]
  Activity: 103.71%
[11]
  Activity: 59.17%
[12]
  Activity: 104.24%
A498 [13]
  Activity: 87.79%
ACHN [14]
  Activity: 89.75%
[15]
  Activity: 96.7%
SN12C
  Activity: 81.73%
[16]
  Activity: 93.4%
SR [17]
  inhibition of growth at 10 µM: 20.5%
[18]
  inhibition of growth at 10 µM: 3.73%
NCI-H226
  inhibition of growth at 10 µM: 8.26%
NCI-H460
  inhibition of growth at 10 µM: 2.02%
NCI-H522
  inhibition of growth at 10 µM: 82.9%
[20]
  inhibition of growth at 10 µM: 40%
HT-29
  inhibition of growth at 10 µM: 73%
KM12
  inhibition of growth at 10 µM: 19.8%
[22]
  inhibition of growth at 10 µM: 16.6%
Malme-3M [23]
  inhibition of growth at 10 µM: 0.22%
[24]
  inhibition of growth at 10 µM: 30.1%
[25]
  inhibition of growth at 10 µM: 40.8%
[26]
  inhibition of growth at 10 µM: 17.1%
786-0
  inhibition of growth at 10 µM: 15.3%
A498 [27]
  inhibition of growth at 10 µM: 12.2%
ACHN [28]
  inhibition of growth at 10 µM: 10.2%
[29]
  inhibition of growth at 10 µM: 10.4%
[30]
  inhibition of growth at 10 µM: 19.9%
MDA-MB-468
  inhibition of growth at 10 µM: 58%
[31]
  Activity: 100.04%

## C=C1CC[C@@H]2[C@](C)(COC(C)=O)[C@H](OC(C)=O)CC[C@@]2(C)[C@@H]1CC(Sc1ccccc1)C1=CCOC1=O (mixture of isomers)
[1]
  Activity: -3.93%
SR [2]
  Activity: 2.9%
EKVX
  Activity: 57.74%
[3]
  Activity: -18.21%
NCI-H23
  Activity: 24.46%
NCI-H322M
  Activity: 67.11%
[4]
  Activity: 44.69%
[5]
  Activity: 65.88%
[6]
  Activity: 86.98%
[7]
  Activity: -83.89%
Malme-3M [8]
  Activity: 16.83%
[9]
  Activity: -1.75%
[10]
  Activity: 25.2%
[11]
  Activity: -84.17%
[12]
  Activity: 39.82%
A498 [13]
  Activity: 86.34%
ACHN [14]
  Activity: -13.74%
[15]
  Activity: 90.6%
SN12C
  Activity: 1.3%
[16]
  Activity: 36.43%
[31]
  Activity: -46.54%
